Assay results reported in ChEMBL document CHEMBL1137956, “Different hydroxyl radical scavenging activity of water-soluble beta-alanine C60 adducts” (Bioorg Med Chem Lett, 2004).

Species: Mus musculus
Experiment: Hydroxyl radical scavenging activity by chemiluminescence technique in mouse thymus cells
Type: functional
Conditions: not given

Row | Compound | IC50 [uM l-1]
1 | O=C([O-])CCNC12c3c4c5c6c7c8c(c9c%10c1c1c3c3c%11c4c4c5c5c7c7c%12c8c8c9c9c%10c%10c1c1c3c3c%11c%11c4c4c5c7c5c7c%12c8c8c9c9c%10c1c1c3c3c%11c4c5c4c7c8c9c1c34)C62.[Na+] (stereo unspecified) | 147.2
2 | O=C(O)c1ccccc1 [BENZOIC ACID] | 16600
3 | OC[C@@H](O)[C@@H](O)[C@H](O)[C@H](O)CO [MANNITOL] | 13800
4 | NC(N)=S [THIOUREA] | 1200

Same assay, conditions: Mus musculus; read-out: IC50

Row | Compound | IC50 [µM]
5 | CN(CCC(=O)O)C12C3=c4c5c6c7c8c9c%10c%11c%12c%13c%14c%15c%16c%17c%18c%19c%20c(c4c4c5c8c(c%139)c(c%14%18)c%194)C4(NCCC(=O)O)C5=c8c9c(c-%16c%13c%14c%16c(c-%11c%11c%18c(c%19c1c(c8c(c9%14)c%19c%18%16)C34)=C(C62)C7(NCCC(=O)O)C%11%10)C%13C%12%15NCCC(=O)O)C%17C5%20NCCC(=O)O (stereo unspecified) | 76.3
6 | CN(CCC(=O)O)C12C3=C4c5c6c7c8c9c%10c%11c%12c%13c%14c%15c%16c%17c%18c(c5c8c(c%15%18)c%139)C4(NCCC(=O)O)C4C=%17C5(NCCC(=O)O)C(=C8c9c1c1c%13c%15c%17c%18c%19c%20c%21c(c8c%19c9%15)C5C=%16C%21(NCCC(=O)O)C%14C%12(NCCC(=O)O)C%20C%18(NCCC(=O)O)C%11C5(NCCC(=O)O)C%17C%13=C(C6(NCCC(=O)O)C31)C7(NCCC(=O)O)C%105)C42 (stereo unspecified) | 96.2
